We go through 17 compounds from patent publication US20110319424A1, “NAPHTHYRIDIN-2(1H) -ONE COMPOUNDS USEFUL AS ANTIBACTERIALS” (priority 2008, published 2011).

One may read the MIC as the lowest concentration that inhibits growth of the organism. Higher therefore signals a less susceptible organism.

In brackets after ≈: the same amount, converted by molar mass. Where only a bound is given, the exact number is not on record here.

Tested on in the first test: not listed separately
The test can be described thus: General antimicrobial activity assay (whole-cell, CLSI broth microdilution, MIC). It counts as cell-based. Conditions: against a strain of at least one of the organisms listed; broth microdilution, 0.016 to 64 μg/mL. The method, then:
(§1) General Antimicrobial Activity Assay
(§2) Whole-cell antimicrobial activity was determined by broth microdilution using the Clinical and Laboratory Standards Institute (CLSI) recommended procedure, Document M7-A7, “Methods for Dilution Susceptibility Tests for Bacteria that Grow Aerobically”. The compounds were tested in serial two-fold dilutions ranging from 0.016 to 64 μg/mL.
(§3) Compounds were evaluated against gram-positive organisms, selected from i) Staphylococcus aureus, ii) Streptococcus pneumoniae, and iii) Enterococcus faecalis. Two compounds were additionally evaluated against Streptococcus pyogenes, and Enterococcus faecium.
(§4) In addition, compounds were evaluated against gram-negative organisms selected from iv) Haemophilus influenzae, v) Moraxella catarrhalis and vi) Escherichia coll. Two compounds were additionally evaluated against Pseudomonas aeruginosa, Proteus mirabilis, Enterobacter cloacae, Enterobacter aerogenes, Klebsiella pneumoniae and Stenotrophomonas maltophilia.
(§5) The minimum inhibitory concentration (MIC) was determined as the lowest concentration of compound that inhibited visible growth. A mirror reader was used to assist in determining the MIC endpoint.
For orientation: In broth dilution the organism is exposed to a series of concentrations in liquid medium.
In turn, `O=c1ccc2ncc(F)cc2n1CCN1CCC(NCc2ccc(F)cc2)CC1` [Example 14, 7-Fluoro-1-[2-(4-{[(4-fluorophenyl)methyl]amino}-1-piperidinyl)ethyl]-1,5-naphthyridin-2(1H)-one] returned an MIC of 4 µg/mL (≈ 10 µM). The same measure, in the same setting: the result for `O=c1ccc2ncccc2n1CCN1CCC(NCc2cccc(Cl)c2)CC1` [Example 57, 1-[2-(4-{[(3-chlorophenyl)methyl]amino}-1-piperidinyl)ethyl]-1,5-naphthyridin-2(1H)-one] reads 4 µg/mL (≈ 10.1 µM); that for `O=c1ccc2ncc(F)cc2n1CCN1CCC(NCc2nc(Br)cs2)CC1` [Example 60, 1-[2-(4-{[(4-bromo-1,3-thiazol-2-yl)methyl]amino}-1-piperidinyl)ethyl]-7-fluoro-1,5-naphthyridin-2(1H)-one], 32 µg/mL (≈ 68.6 µM); that for `Cc1ncc(CNC2CCN(CCn3c(=O)ccc4ncc(F)cc43)CC2)[nH]1.O=C(O)C(F)(F)F` [Example 119, 7-fluoro-1-[2-(4-{[(2-methyl-1H-imidazol-4-yl)methyl]amino}-1-piperidinyl)ethyl]-1,5-naphthyridin-2(1H)-one trifluoroacetate], over 64 µg/mL.

`Cc1ncc(CN[C@H]2CCN(CCn3c(=O)ccc4ncc(F)cc43)C[C@H]2O)cc1F` [Example 128, 7-fluoro-1-[2-((3R,4S)-4-{[(5-fluoro-6-methyl-3-pyridinyl)methyl]amino}-3-hydroxy-1-piperidinyl)ethyl]-1,5-naphthyridin-2(1H)-one] returned an MIC of 32 µg/mL (≈ 74.5 µM).

The test system of a further test is gram-positive organisms i) Staphylococcus aureus, ii) Streptococcus pneumoniae, iii) Enterococcus faecalis and gram-negative organisms iv) Haemophilus …. Described as above. Type of test: cell-based. Conditions: organisms i)-vi) of the antimicrobial activity assay. As for the experimental part:
as §1, §2, §3, §4, §5
With `O=c1ccc2ncccc2n1CCN1CCC(NCc2cc(Cl)cc(Cl)c2)CC1` [Example 58, 1-[2-(4-{[(3,5-dichlorophenyl)methyl]amino}-1-piperidinyl)ethyl]-1,5-naphthyridin-2(1H)-one], the “activity against organisms i)-vi)” value is given as “no activity”.

Another test deals with Mycobacterium tuberculosis H37Rv. Briefly: Mycobacterium tuberculosis H37Rv inhibition assay (MIC, resazurin fluorescence). It counts as cell-based. Conditions: ATCC 25618 / H37Rv, 144 h, H37Rv strain (ATCC25618), Middlebrook 7H9, six days at 37° C. then resazurin 48 hours. Background: Alamar Blue is a resazurin reagent that responds to reducing activity.
Consider `O=c1ccc2ncc(F)cc2n1CCN1CCC(NCc2ccc(F)cc2)CC1` [Example 14, 7-Fluoro-1-[2-(4-{[(4-fluorophenyl)methyl]amino}-1-piperidinyl)ethyl]-1,5-naphthyridin-2(1H)-one], for which the MIC was at most 2.4 µg/mL. Same read-out and setting: the result for `O=c1ccc2ncccc2n1CCN1CCC(NCc2cccc(Cl)c2)CC1` [Example 57, 1-[2-(4-{[(3-chlorophenyl)methyl]amino}-1-piperidinyl)ethyl]-1,5-naphthyridin-2(1H)-one] reads at most 2.4 µg/mL; that for `O=c1ccc2ncccc2n1CCN1CCC(NCc2cc(Br)cs2)CC1` [Example 81, 1-[2-(4-{[(4-bromo-2-thienyl)methyl]amino}-1-piperidinyl)ethyl]-1,5-naphthyridin-2(1H)-one], at most 2.4 µg/mL. Same read-out and setting: the result for `O=c1ccc2ncc(F)cc2n1CCN1CCC(NCc2cccc(Cl)c2)CC1` [Example 103, 1-[2-(4-{[(3-chlorophenyl)methyl]amino}-1-piperidinyl)ethyl]-7-fluoro-1,5-naphthyridin-2(1H)-one] reads at most 2.4 µg/mL. As to `COc1cnc2ccc(=O)n(CCN3CCC(NCc4cncc(Cl)n4)CC3)c2c1` [Example 111, 1-[2-(4-{[(6-chloro-2-pyrazinyl)methyl]amino}-1-piperidinyl)ethyl]-7-(methyloxy)-1,5-naphthyridin-2(1H)-one], the minimum inhibitory concentration (MIC) is at most 2.4 µg/mL.

Compound `COc1cnc2ccc(=O)n(CCN3CCC(NCc4ccnc(C(F)(F)F)n4)CC3)c2c1` [Example 113, 7-(methyloxy)-1-{2-[4-({[2-(trifluoromethyl)-4-pyrimidinyl]methyl}amino)-1-piperidinyl]ethyl}-1,5-naphthyridin-2(1H)-one] returned an MIC of at most 2.4 µg/mL.

Compound `COc1cnc2ccc(=O)n(CCN3CCC(NCc4cc(C)cc(C)n4)CC3)c2c1` [Example 114, 1-[2-(4-{[(4,6-dimethyl-2-pyridinyl)methyl]amino}-1-piperidinyl)ethyl]-7-(methyloxy)-1,5-naphthyridin-2(1H)-one] gave an MIC of at most 2.4 µg/mL.

In turn, `COc1cnc2ccc(=O)n(CCN3CCC(NCc4ccc(Cl)cn4)CC3)c2c1` [Example 116] displayed a minimum inhibitory concentration (MIC) of at most 2.4 µg/mL. Same read-out and setting: next, `CC(C)(C)c1ccc(CNC2CCN(CCn3c(=O)ccc4ncc(F)cc43)CC2)cc1` [Example 121, 1-{2-[4-({[4-(1,1-dimethylethyl)phenyl]methyl}amino)-1-piperidinyl]ethyl}-7-fluoro-1,5-naphthyridin-2(1H)-one]: at most 2.4 µg/mL. Still for that read-out and setting: next, `Cc1cc(CNC2CCN(CCn3c(=O)ccc4ncc(F)cc43)CC2)cnc1C` [Example 125, 1-[2-(4-{[(5,6-dimethyl-3-pyridinyl)methyl]amino}-1-piperidinyl)ethyl]-7-fluoro-1,5-naphthyridin-2(1H)-one]: at most 2.4 µg/mL. For `Cc1ncc(CN[C@H]2CCN(CCn3c(=O)ccc4ncc(F)cc43)C[C@H]2O)cc1F` [Example 128, 7-fluoro-1-[2-((3R,4S)-4-{[(5-fluoro-6-methyl-3-pyridinyl)methyl]amino}-3-hydroxy-1-piperidinyl)ethyl]-1,5-naphthyridin-2(1H)-one], the MIC was at most 2.4 µg/mL. Same read-out and setting: the result for `Cc1ncc(CN[C@H]2CCN(CCn3c(=O)ccc4ncc(F)cc43)C[C@H]2O)cc1Br` [Example 130, 1-[2-((3R,4S)-4-{[(5-bromo-6-methyl-3-pyridinyl)methyl]amino}-3-hydroxy-1-piperidinyl)ethyl]-7-fluoro-1,5-naphthyridin-2(1H)-one] reads at most 2.4 µg/mL; that for `CC1(NCc2ccc(C(F)(F)F)nc2)CCN(CCn2c(=O)ccc3ncc(F)cc32)CC1` [Example 131, 7-fluoro-1-{2-[4-methyl-4-({[6-(trifluoromethyl)-3-pyridinyl]methyl}amino)-1-piperidinyl]ethyl}-1,5-naphthyridin-2(1H)-one], at most 2.4 µg/mL. On the same count and under the same terms, the result for `COc1cnc2ccc(=O)n(CCN3CCC(C)(NCc4ccc(Cl)c(Cl)c4)CC3)c2c1` [Example 132] reads at most 2.4 µg/mL.
